In PMC7020459, “Antioxidant and Enzyme Inhibitory Properties of the Polyphenolic-Rich Extract from an Ancient Apple Variety of Central Italy (Mela Rosa dei Monti Sibillini)” (Plants, 2019):

Experiments:
[1] = target: T1, lipase type II from porcine pancreas (Sus scrofa, UniProt P00591); assay: lipase inhibition assay; format: biochemical; conditions: maximal inhibition reached
T1 construct: purchased Sigma-Aldrich (Madrid, Spain); host or cells: porcine pancreas
T1 sequence (P00591 1-450): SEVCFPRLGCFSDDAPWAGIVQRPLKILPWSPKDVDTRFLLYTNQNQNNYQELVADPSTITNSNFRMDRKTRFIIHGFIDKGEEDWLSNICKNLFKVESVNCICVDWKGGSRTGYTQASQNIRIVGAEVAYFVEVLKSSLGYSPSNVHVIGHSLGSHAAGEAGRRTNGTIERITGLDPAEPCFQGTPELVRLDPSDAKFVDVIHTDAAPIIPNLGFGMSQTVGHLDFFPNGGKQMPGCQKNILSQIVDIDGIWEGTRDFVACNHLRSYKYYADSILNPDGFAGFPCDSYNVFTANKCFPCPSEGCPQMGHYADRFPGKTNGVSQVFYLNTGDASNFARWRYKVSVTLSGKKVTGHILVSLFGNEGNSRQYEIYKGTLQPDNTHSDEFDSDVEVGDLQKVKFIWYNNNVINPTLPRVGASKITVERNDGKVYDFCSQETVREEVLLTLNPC
Protocol: The lipase inhibition assay was based on a previous protocol. […] Then, 20 µL of pNPB (10 mM in ethanol) was added to each well and incubated for another 15 min at 37 °C. Blanks and control wells were made.

[2] = DPPH free radical scavenging assay; conditions: concentration causing 50% decrease in initial DPPH concentration
Protocol: (§1) The in vitro antioxidant activity of the different samples was assessed through three assays by means of standard methods using a SPECTROstar Omega (BMG LABTECH GmbH, Ortenberg, Germany) microplate reader. For the preparation of the stock solution, around 10 ± 1 mg of the different samples were diluted in 1 mL of methanol in an Eppendorf. Then, 100 µL of this stocked solution was diluted with 900 µL of methanol for the analyses. All analyses were conducted at least twice.
The free radical scavenging activity was evaluated using 1, 1-diphenyl-2-picrylhydrazyl (DPPH) on microplate analytical assay, as described by Beghelli et al. and Censi et al.. […] The absorbance of the wells was measured at 517 nm with a microplate reader against a blank prepared using methanol in addition to the DPPH reagent to get rid of any inherent solvent activity.
The total radical scavenging activity was measured using 2, 2′-azino-bis (3-ethylbenzothiazoline-6-sulphonic acid) (ABTS) assay. […] The working solution was obtained by filtration and dilution with methanol of the previous mixture to give an absorbance of AU 1 at 734 nm. […] After 15 min of incubation, the absorbance of each well was determined at 734 nm. […]

[3] = ABTS radical cation decolorization assay; conditions: concentration causing 50% decrease in initial ABTS concentration
Protocol: as §1
The total radical scavenging activity was measured using 2, 2′-azino-bis (3-ethylbenzothiazoline-6-sulphonic acid) (ABTS) assay. The ABTS^•+ solution was freshly prepared by the oxidation of ABTS (10 mg) by MnO2 (0.75 g) in the presence of distilled water (4 mL), followed by 30 min of incubation away from light at room temperature. The working solution was obtained by filtration and dilution with methanol of the previous mixture to give an absorbance of AU 1 at 734 nm. The extract concentrations used were the same as for the DPPH assay, and 200 µL of the ABTS solution was added to the wells. After 15 min of incubation, the absorbance of each well was determined at 734 nm. Trolox (6-hydroxy-2,5,7,8-tetramethylchroman-2-carboxylic acid) was the reference compound used in both DPPH and ABTS assays. […]

Row | SMILES | lipase inhibition reached [1] | DPPH IC50 [2] | ABTS IC50 [3]
1 | CCCCCCCCCCC[C@@H](C[C@@H]1OC(=O)[C@H]1CCCCCC)OC(=O)[C@H](CC(C)C)NC=O [Orlistat] | 75% |  | 
2 | Cc1c(C)c2c(c(C)c1O)CCC(C)(C(=O)O)O2 (stereo not drawn) [Trolox, 6-hydroxy-2,5,7,8-tetramethylchroman-2-carboxylic acid] |  | 5.3 ± 1.1 µg/mL | 4.7 ± 0.2 µg/mL
